Changes are numbered by the printed parent chain. Where two headings read alike, the source gives them in different places.
What was measured:
rat TAP1-NBD [1] = target: T1, rat TAP1-NBD (Rattus norvegicus, UniProt P36370); test: fluorescence polarization, direct titration; assay type: binding; conditions: pH 8.0, 20 mM Tris, 50 mM NaCl, 1 mM dithiothreitol; labelled compound
T1 construct: monomer-homodimer equilibrium
T1 sequence (P36370 465-725): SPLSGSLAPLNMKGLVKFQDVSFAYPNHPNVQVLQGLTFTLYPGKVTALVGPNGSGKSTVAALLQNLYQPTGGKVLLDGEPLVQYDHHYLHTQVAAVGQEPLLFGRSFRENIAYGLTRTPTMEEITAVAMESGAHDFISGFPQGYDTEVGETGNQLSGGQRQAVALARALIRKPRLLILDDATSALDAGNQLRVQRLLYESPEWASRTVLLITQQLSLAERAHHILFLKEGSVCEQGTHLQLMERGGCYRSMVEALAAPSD
Excerpt: fluorescence polarization, direct titration on rat TAP1-NBD | series of eight twofold dilutions in assay buffer

[2] = target: T2, TAP with tapasin-TAP2 fusion (Tsn-TAP) (Homo sapiens, UniProt Q03518+Q03519); test: competition with 8-azido-[α-32P]ATP photo-crosslinking; assay type: binding; conditions: 200-fold excess, 1 mM MgCl2, pH 7.4, 4 °C
T2 construct: gene TAP1; purified heterodimer from Sf9 cells in digitonin; TAP2 fused N-terminally to tapasin (TAPBP) only to separate the subunits on the gel
T2 sequence (Q03518 1-748): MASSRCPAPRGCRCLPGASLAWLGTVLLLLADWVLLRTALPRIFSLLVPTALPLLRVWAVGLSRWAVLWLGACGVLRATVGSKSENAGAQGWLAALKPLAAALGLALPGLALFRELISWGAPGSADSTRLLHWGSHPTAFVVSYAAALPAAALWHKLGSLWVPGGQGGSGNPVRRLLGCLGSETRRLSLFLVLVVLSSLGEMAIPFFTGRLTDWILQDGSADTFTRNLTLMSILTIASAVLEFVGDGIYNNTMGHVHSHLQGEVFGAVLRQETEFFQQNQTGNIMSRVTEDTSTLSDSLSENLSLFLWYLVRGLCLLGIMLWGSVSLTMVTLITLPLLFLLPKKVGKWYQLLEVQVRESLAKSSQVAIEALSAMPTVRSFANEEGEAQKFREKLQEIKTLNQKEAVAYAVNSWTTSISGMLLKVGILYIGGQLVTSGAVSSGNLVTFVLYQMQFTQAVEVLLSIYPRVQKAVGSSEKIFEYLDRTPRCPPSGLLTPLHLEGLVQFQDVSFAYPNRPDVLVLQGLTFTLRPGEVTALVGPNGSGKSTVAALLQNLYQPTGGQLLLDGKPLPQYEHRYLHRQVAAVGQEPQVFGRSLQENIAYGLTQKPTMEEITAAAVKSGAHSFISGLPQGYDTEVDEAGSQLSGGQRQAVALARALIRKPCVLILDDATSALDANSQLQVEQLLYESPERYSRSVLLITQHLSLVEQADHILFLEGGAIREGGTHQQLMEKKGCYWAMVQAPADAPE
T2 sequence (Q03519 1-686): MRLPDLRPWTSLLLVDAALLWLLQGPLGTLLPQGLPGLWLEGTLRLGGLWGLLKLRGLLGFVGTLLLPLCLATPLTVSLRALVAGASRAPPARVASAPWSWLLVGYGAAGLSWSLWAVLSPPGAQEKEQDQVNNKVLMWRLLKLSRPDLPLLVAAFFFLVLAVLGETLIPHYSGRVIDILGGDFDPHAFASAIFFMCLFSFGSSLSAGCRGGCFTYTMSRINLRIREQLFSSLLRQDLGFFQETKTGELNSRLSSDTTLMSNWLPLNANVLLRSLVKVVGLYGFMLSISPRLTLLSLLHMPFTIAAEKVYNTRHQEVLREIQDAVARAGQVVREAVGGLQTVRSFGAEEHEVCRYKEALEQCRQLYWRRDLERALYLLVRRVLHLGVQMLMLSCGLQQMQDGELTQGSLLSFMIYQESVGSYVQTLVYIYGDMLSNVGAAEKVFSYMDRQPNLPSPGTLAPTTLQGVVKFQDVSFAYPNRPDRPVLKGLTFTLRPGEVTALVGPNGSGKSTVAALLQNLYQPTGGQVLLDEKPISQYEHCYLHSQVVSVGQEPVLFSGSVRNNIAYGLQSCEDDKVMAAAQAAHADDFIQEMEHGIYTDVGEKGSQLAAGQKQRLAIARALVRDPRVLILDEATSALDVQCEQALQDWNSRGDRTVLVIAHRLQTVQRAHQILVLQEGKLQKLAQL
T2 sequence (O15533 21-448 partner): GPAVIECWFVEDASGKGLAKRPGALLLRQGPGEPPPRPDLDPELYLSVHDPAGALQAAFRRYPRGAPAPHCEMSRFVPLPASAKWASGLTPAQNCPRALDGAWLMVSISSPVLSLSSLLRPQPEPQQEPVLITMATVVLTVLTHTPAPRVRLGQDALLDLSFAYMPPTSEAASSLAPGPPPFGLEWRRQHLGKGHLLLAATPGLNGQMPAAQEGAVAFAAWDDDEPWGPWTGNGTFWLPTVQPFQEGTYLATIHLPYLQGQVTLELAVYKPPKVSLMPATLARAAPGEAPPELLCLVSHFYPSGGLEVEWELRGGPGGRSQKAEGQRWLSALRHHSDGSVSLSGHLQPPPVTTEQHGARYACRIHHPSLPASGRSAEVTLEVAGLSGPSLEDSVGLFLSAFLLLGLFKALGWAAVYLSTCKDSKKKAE

rat TAP1-NBD [3] = target: T1, rat TAP1-NBD; test: fluorescence polarization competition with ATP-Bodipy; assay type: binding
Excerpt: (§1) fluorescence polarization competition with ATP-Bodipy on rat TAP1-NBD | affinities for ATP and ADP of isolated wt and D-loop (D651A) mutant rat TAP1-NBD

rat TAP1-NBD [4] = target: T3, rat TAP1-NBD (Rattus norvegicus, UniProt P36370, D651A); test: as above; assay type: binding
T3 construct: monomer-homodimer equilibrium
T3 sequence (P36370 465-725 D651A): T1 sequence (P36370 465-725) with D187A
Excerpt: as §1

rat TAP1-NBD [5] = target: T1, rat TAP1-NBD; test: biochemical; set-up: fluorescence polarization competition of unlabelled nucleotide against 1 uM ATP-Bodipy, TAP1-NBD
Procedure: Nucleotide-stripped TAP1-NBD samples were re-concentrated to ~100 μM, and used to make a series of eight twofold dilutions in assay buffer (20 mM Tris, pH 8.0, 50 mM NaCl, 1 mM dithiothreitol) with 1 μM ATP-Bodipy (Invitrogen). A background control contained no protein. For competitive binding experiments, NBDs (25 μM final) were mixed with 1 μM ATP-Bodipy and a series of ten twofold dilutions of unlabelled nucleotide, with samples with no labelled nucleotide serving as background control. Fluorescence polarization was measured in FlexStation 3 with excitation at 488 nm. All samples were run two or three times in triplicates. Data were analysed with Origin (OriginLab Corp.). Binding affinities of unlabelled nucleotides (Kis) were obtained using Ki=IC50/([L]/Kd+1). To explore the molecular mechanism of antigen translocation, wt TAP and the D674A/wt complex were purified and functionally reconstituted in proteoliposomes. […] Furthermore, the Michaelis–Menten kinetics for peptide transport by wt TAP and D674A/wt are equal (Fig. 2c, Supplementary Fig. 2c and Supplementary Table 3), confirming that the affinity for ATP and peptides is not affected by the D-loop substitution.

[6] = target: T4, TAP (TAP1/TAP2 complex; wt TAP) (Homo sapiens, UniProt Q03518+Q03519); test: ATP binding affinity; conditions: type of constant not stated in main text
T4 construct: full-length heterodimer from Sf9 insect cells (baculovirus), purified and reconstituted in proteoliposomes, or in membranes
T4 sequence (Q03518 1-748): T2 sequence (Q03518 1-748)
T4 sequence (Q03519 1-686): T2 sequence (Q03519 1-686)

[7] = target: T4, TAP (TAP1/TAP2 complex; wt TAP); test: biochemical; set-up: species or system Sf9; ATP-agarose competition binding assay with TAP-containing Sf9 membranes; conditions: read-out: ATP binding IC50
rat TAP1-NBD [8] = target: T5, rat TAP1-NBD (Rattus norvegicus, UniProt P36370, D645N/D651A); test: X-ray crystal structure, […] Å; assay type: binding; conditions: crystals pH 8.0; canonical NBD dimer with two ATP
T5 construct: monomer-homodimer equilibrium
T5 sequence (P36370 465-725 D645N/D651A): T1 sequence (P36370 465-725) with D181N, D187A

Compound	Kd (rat TAP1-NBD [1])	competition with 8-azido-[α-32P]ATP photo-crosslinking [2]	Ki (rat TAP1-NBD [3])	Ki (rat TAP1-NBD [4])	IC50 (rat TAP1-NBD [5]; read-out: IC50 (µM) ADP)	affinity [6]	IC50 [7]	X-ray crystal structure, 2.65 Å (rat TAP1-NBD [8])	IC50 (rat TAP1-NBD [5]; read-out: IC50 (µM) ATP)
ATP-Bodipy	6.1 ± 1.7 µM								
Nc1ncnc2c1ncn2[C@@H]1O[C@H](COP(=O)(O)OP(=O)(O)O)[C@@H](O)[C@H]1O [ADP]		wt and D674A/wt TAP showed the same binding properties for ATP, ADP (Fig. 2b)	59 ± 2 µM	59 ± 3 µM	69 ± 14 µM				
Nc1ncnc2c1ncn2[C@@H]1O[C@H](COP(=O)(O)OP(=O)(O)OP(=O)(O)O)[C@@H](O)[C@H]1O [ATP]			119 ± 13 µM	148 ± 9 µM		all mutants displayed similar affinity for peptides and ATP as compared with wt TAP	10 ± 1 µM	the two ATPs and their binding sites are essentially unaffected by this structural re-organization	139 ± 30 µM

Source: article PMC4242082, “Mechanistic determinants of the directionality and energetics of active export by a heterodimeric ABC transporter” (Nature Communications, 2014)
